Like-named read-outs stand apart in the source and are kept apart here.
Experiments:
hepatitis C replicon = hepatitis C replicon EC50; type: cell-based; conditions: Hepatitis C virus
Source text: NS3-NS4 inhibition activity can be determined using known assay methods.

NS3/NS4 complexes = NS3/NS4 complexes (Hepatitis C virus genotype 1a, UniProt P27958); experiment: NS3/NS4 inhibition activity (IC50); type: biochemical
Outline: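 Buffer: 50 mM Tris-HCl (pH 7.5), 10 mM DTT, 25 μM NS4A peptide, 0.6 mM LDAO and 15% glycerol. Assays were run at 23 °C with preformed NS3/NS4 complex, and the compound concentration giving inhibition was derived as an IC50.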

[1] = Table 3, hepatitis C replicon, read-out: EC50

Chain of NS3/NS4 complexes (P27958 1027-1657): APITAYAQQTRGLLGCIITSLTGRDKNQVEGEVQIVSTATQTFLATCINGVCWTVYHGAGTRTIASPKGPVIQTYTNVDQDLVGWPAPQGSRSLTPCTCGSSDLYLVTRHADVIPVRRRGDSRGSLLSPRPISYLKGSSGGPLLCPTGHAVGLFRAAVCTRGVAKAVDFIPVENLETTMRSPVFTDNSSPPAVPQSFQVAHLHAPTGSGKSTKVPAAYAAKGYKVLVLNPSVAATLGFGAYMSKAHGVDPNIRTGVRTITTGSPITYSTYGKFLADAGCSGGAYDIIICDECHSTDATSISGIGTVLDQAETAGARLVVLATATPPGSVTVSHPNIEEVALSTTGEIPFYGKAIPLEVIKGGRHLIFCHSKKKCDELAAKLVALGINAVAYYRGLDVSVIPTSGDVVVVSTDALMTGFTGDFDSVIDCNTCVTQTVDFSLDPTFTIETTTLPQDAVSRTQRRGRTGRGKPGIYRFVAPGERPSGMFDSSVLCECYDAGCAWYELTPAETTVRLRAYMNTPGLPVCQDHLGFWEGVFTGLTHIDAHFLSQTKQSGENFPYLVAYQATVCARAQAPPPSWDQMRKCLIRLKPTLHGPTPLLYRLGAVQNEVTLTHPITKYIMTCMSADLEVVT
Chain of NS3/NS4 complexes (P27958 1658-1711): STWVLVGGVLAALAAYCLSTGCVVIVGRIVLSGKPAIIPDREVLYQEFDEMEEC

Row | Compound | EC50 (hepatitis C replicon) | IC50 (NS3/NS4 complexes; IC50, Table 3) | EC50 (hepatitis C replicon; [1]) | IC50 (NS3/NS4 complexes; Table 3, read-out: IC50)
1 | CC(C)(C)OC(=O)N[C@H]1CCCCC/C=C\[C@@H]2C[C@@]2(C(=O)NCC(=O)NCc2ccccc2)NC(=O)[C@@H]2C[C@@H](OC(=O)N3Cc4cccc(F)c4C3)CN2C1=O [Compound 1053] | > 100 nM | 10 to 100 nM |  | 
2 | CC(C)(C)OC(=O)N[C@H]1CCCCC/C=C\[C@@H]2C[C@@]2(C(=O)N2CCC[C@@H]2C(=O)NCc2ccccc2)NC(=O)[C@@H]2C[C@@H](OC(=O)N3Cc4cccc(F)c4C3)CN2C1=O [Compound 1057] | > 100 nM | > 100 nM |  | 
3 | CC(C)(C)OC(=O)N[C@H]1CCCCC/C=C\[C@@H]2C[C@@]2(C(=O)NCCC(=O)NCc2ccccc2)NC(=O)[C@@H]2C[C@@H](O)CN2C1=O [Compound 1058] |  |  | > 100 nM | > 100 nM
4 | CC(=O)O[C@@H]1C[C@H]2C(=O)N[C@]3(C(=O)N4CCC[C@H]4C(=O)NCc4ccccc4)C[C@H]3/C=C\CCCCC[C@H](NC(=O)OC(C)(C)C)C(=O)N2C1 [Compound 1061] |  | > 100 nM | > 100 nM | 
5 | CO[C@@H]1C[C@H]2C(=O)N[C@]3(C(=O)NCCC(=O)NCc4ccccc4)C[C@H]3/C=C\CCCCC[C@H](NC(=O)OC(C)(C)C)C(=O)N2C1 [Compound 1062] |  |  | > 100 nM | > 100 nM
6 | CN(C)C(=O)O[C@@H]1C[C@H]2C(=O)N[C@]3(C(=O)NS(=O)(=O)C4(C)CC4)C[C@H]3/C=C\CCCCC[C@H](NC(=O)OC(C)(C)C)C(=O)N2C1 [Compound 1065] | > 100 nM |  |  | < 10 nM
7 | CC(=O)O[C@@H]1C[C@H]2C(=O)N[C@]3(C(=O)NS(=O)(=O)C4CC4)C[C@H]3/C=C\CCCCC[C@H](NC(=O)OC(C)(C)C)C(=O)N2C1 [Compound 1071] |  |  | > 100 nM | < 10 nM
8 | CC(C)(C)OC(=O)N[C@H]1CCCCC/C=C\[C@@H]2C[C@@]2(C(=O)NS(=O)(=O)C2(C)CC2)NC(=O)[C@@H]2C[C@@H](OC(=O)N3CCCC3)CN2C1=O [Compound 1072] |  |  | > 100 nM | < 10 nM
9 | COc1ccc2c(O[C@@H]3C[C@H]4C(=O)N[C@]5(C(=O)NS(=O)(=O)C6CC6)C[C@H]5/C=C\CCCCC[C@H](NC(=O)OC(C)(C)C)C(=O)N4C3)cc(-c3ccccc3)nc2c1 [Compound 1075] |  |  | < 10 nM | < 10 nM
10 | CC(C)n1c(O[C@@H]2C[C@H]3C(=O)N[C@]4(C(=O)NS(=O)(=O)C5(C)CC5)C[C@H]4/C=C\CCCCC[C@H](NC(=O)OC(C)(C)C)C(=O)N3C2)nc2ccccc21 [Compound 1077] |  |  | < 10 nM | < 10 nM
11 | COc1ccc2c(O[C@@H]3C[C@H]4C(=O)N[C@]5(C(=O)NS(=O)(=O)C6(C)CC6)C[C@H]5/C=C\CCCCC[C@H](NC(=O)OC(C)(C)C)C(=O)N4C3)cc(-c3nc(C(C)C)cs3)nc2c1C [Compound 1078] |  |  | < 10 nM | < 10 nM
12 | CC(C)(C)OC(=O)N[C@H]1CCCCC/C=C\[C@@H]2C[C@@]2(C(=O)NS(=O)(=O)C2(C)CC2)NC(=O)[C@@H]2C[C@@H](Oc3nc4ccccc4[nH]3)CN2C1=O [Compound 1079] | > 100 nM |  |  | < 10 nM
13 | CCn1c(O[C@@H]2C[C@H]3C(=O)N[C@]4(C(=O)NS(=O)(=O)C5(C)CC5)C[C@H]4CCCCCCC[C@H](NC(=O)OC(C)(C)C)C(=O)N3C2)nc2ccccc21 [Compound 1080] |  |  | < 10 nM | < 10 nM
14 | CC(C)(C)OC(=O)N[C@H]1CCCCCCC[C@@H]2C[C@@]2(C(=O)NS(=O)(=O)C2(C)CC2)NC(=O)[C@@H]2C[C@@H](OC(=O)N3Cc4cccc(F)c4C3)CN2C1=O [Compound 1081] |  |  | < 10 nM | < 10 nM
15 | CC(C)(C)OC(=O)N[C@H]1CCCCC/C=C\[C@@H]2C[C@@]2(C(=O)NS(=O)(=O)CC(=O)Nc2ccccc2)NC(=O)[C@@H]2C[C@@H](OC(=O)N3Cc4cccc(F)c4C3)CN2C1=O [Compound 1082] | > 100 nM |  |  | < 10 nM
16 | CC(C)(C)OC(=O)N[C@H]1CCCCC/C=C\[C@@H]2C[C@@]2(C(=O)NS(=O)(=O)c2ccccc2OCC(N)=O)NC(=O)[C@@H]2C[C@@H](OC(=O)N3Cc4cccc(F)c4C3)CN2C1=O [Compound 1083] |  |  | > 100 nM | < 10 nM
17 | CNC(=O)COc1ccccc1S(=O)(=O)NC(=O)[C@@]12C[C@H]1/C=C\CCCCC[C@H](NC(=O)OC(C)(C)C)C(=O)N1C[C@H](OC(=O)N3Cc4cccc(F)c4C3)C[C@H]1C(=O)N2 [Compound 1084] |  |  | > 100 nM | < 10 nM
18 | O=C(N[C@H]1CCCCC/C=C\[C@@H]2C[C@@]2(C(=O)NS(=O)(=O)C2CC2)NC(=O)[C@@H]2C[C@@H](OC(=O)N3Cc4cccc(F)c4C3)CN2C1=O)O[C@@H]1C[C@@H]2C[C@@H]2C1 [Compound 1085] |  |  | < 10 nM | < 10 nM
19 | CC(C)(C)OC(=O)N[C@H]1CCCCC/C=C\[C@@H]2C[C@@]2(C(=O)NS(=O)(=O)Cc2ccccc2)NC(=O)[C@@H]2C[C@@H](OC(=O)N3Cc4cccc(F)c4C3)CN2C1=O [Compound 1086] |  |  | > 100 nM | < 10 nM
20 | CO[C@@H]1C[C@H]2C(=O)N[C@]3(C(=O)NS(=O)(=O)C4(C)CC4)C[C@H]3/C=C\CCCCC[C@H](NC(=O)OC(C)(C)C)C(=O)N2C1 [Compound 1091] |  |  | > 100 nM | > 100 nM

Row | Compound | EC50 (hepatitis C replicon) | IC50 (NS3/NS4 complexes; IC50, Table 3) | EC50 (hepatitis C replicon; [1]) | IC50 (NS3/NS4 complexes; Table 3, read-out: IC50)
21 | CC(C)(C)OC(=O)N[C@H]1CCCCC/C=C\[C@@H]2C[C@@]2(C(=O)NS(=O)(=O)c2ccccc2OCC(N)=O)NC(=O)[C@@H]2C[C@@H](O)CN2C1=O [Compound 1093] |  |  | > 100 nM | > 100 nM
22 | CNC(=O)COc1ccccc1S(=O)(=O)NC(=O)[C@@]12C[C@H]1/C=C\CCCCC[C@H](NC(=O)OC(C)(C)C)C(=O)N1C[C@H](O)C[C@H]1C(=O)N2 [Compound 1094] |  |  | > 100 nM | > 100 nM
23 | CO[C@@H]1C[C@H]2C(=O)N[C@]3(C(=O)NS(=O)(=O)CC(=O)Nc4ccccc4)C[C@H]3/C=C\CCCCC[C@H](NC(=O)OC(C)(C)C)C(=O)N2C1 [Compound 1099] | < 10 nM |  |  | < 10 nM
24 | CC1(S(=O)(=O)NC(=O)[C@@]23C[C@H]2/C=C\CCCCC[C@H](Nc2cc(F)cc(C(F)(F)F)c2)C(=O)N2C[C@H](OC(=O)N4Cc5cccc(F)c5C4)C[C@H]2C(=O)N3)CC1 [Compound 1100] |  |  | < 10 nM | < 10 nM
25 | CC1(S(=O)(=O)NC(=O)[C@@]23C[C@H]2/C=C\CCCCC[C@H](Nc2cccc(C(N)=O)c2)C(=O)N2C[C@H](OC(=O)N4Cc5cccc(F)c5C4)C[C@H]2C(=O)N3)CC1 [Compound 1101] |  |  | 10 to 100 nM | < 10 nM
26 | CC1(S(=O)(=O)NC(=O)[C@@]23C[C@H]2/C=C\CCCCC[C@H](Nc2ccccc2)C(=O)N2C[C@H](OC(=O)N4Cc5cccc(F)c5C4)C[C@H]2C(=O)N3)CC1 [Compound 1102] |  |  | < 10 nM | < 10 nM
27 | Cc1cccc(N[C@H]2CCCCC/C=C\[C@@H]3C[C@@]3(C(=O)NS(=O)(=O)C3(C)CC3)NC(=O)[C@@H]3C[C@@H](OC(=O)N4Cc5cccc(F)c5C4)CN3C2=O)c1 [Compound 1103] |  |  | < 10 nM | < 10 nM
28 | COc1cccc(N[C@H]2CCCCC/C=C\[C@@H]3C[C@@]3(C(=O)NS(=O)(=O)C3(C)CC3)NC(=O)[C@@H]3C[C@@H](OC(=O)N4Cc5cccc(F)c5C4)CN3C2=O)c1 [Compound 1104] |  |  | < 10 nM | < 10 nM
29 | Cc1cc(F)cc(N[C@H]2CCCCC/C=C\[C@@H]3C[C@@]3(C(=O)NS(=O)(=O)C3(C)CC3)NC(=O)[C@@H]3C[C@@H](OC(=O)N4Cc5cccc(F)c5C4)CN3C2=O)c1 [Compound 1105] |  |  | < 10 nM | < 10 nM
30 | CN(C)C(=O)c1cccc(N[C@H]2CCCCC/C=C\[C@@H]3C[C@@]3(C(=O)NS(=O)(=O)C3(C)CC3)NC(=O)[C@@H]3C[C@@H](OC(=O)N4Cc5cccc(F)c5C4)CN3C2=O)c1 [Compound 1106] |  |  | 10 to 100 nM | < 10 nM
31 | CC1(S(=O)(=O)NC(=O)[C@@]23C[C@H]2/C=C\CCCCC[C@H](Nc2ccc(F)c(F)c2)C(=O)N2C[C@H](OC(=O)N4Cc5cccc(F)c5C4)C[C@H]2C(=O)N3)CC1 [Compound 1107] |  |  | 10 to 100 nM | < 10 nM
32 | CC1(S(=O)(=O)NC(=O)[C@@]23C[C@H]2/C=C\CCCCC[C@H](Nc2cc(F)c(F)c(F)c2)C(=O)N2C[C@H](OC(=O)N4Cc5cccc(F)c5C4)C[C@H]2C(=O)N3)CC1 [Compound 1108] |  |  | 10 to 100 nM | < 10 nM
33 | CC1(S(=O)(=O)NC(=O)[C@@]23C[C@H]2/C=C\CCCCC[C@H](Nc2ccc(C#N)cc2)C(=O)N2C[C@H](OC(=O)N4Cc5cccc(F)c5C4)C[C@H]2C(=O)N3)CC1 [Compound 1109] |  |  | 10 to 100 nM | < 10 nM
34 | CC(=O)Nc1cccc(N[C@H]2CCCCC/C=C\[C@@H]3C[C@@]3(C(=O)NS(=O)(=O)C3(C)CC3)NC(=O)[C@@H]3C[C@@H](OC(=O)N4Cc5cccc(F)c5C4)CN3C2=O)c1 [Compound 1110] |  |  | 10 to 100 nM | < 10 nM
35 | CC1(S(=O)(=O)NC(=O)[C@@]23C[C@H]2/C=C\CCCCC[C@H](Nc2ccc(F)cc2)C(=O)N2C[C@H](OC(=O)N4Cc5cccc(F)c5C4)C[C@H]2C(=O)N3)CC1 [Compound 1111] |  |  | 10 to 100 nM | < 10 nM
36 | CNC(=O)c1cccc(N[C@H]2CCCCC/C=C\[C@@H]3C[C@@]3(C(=O)NS(=O)(=O)C3(C)CC3)NC(=O)[C@@H]3C[C@@H](OC(=O)N4Cc5cccc(F)c5C4)CN3C2=O)c1 [Compound 1112] |  |  | > 100 nM | < 10 nM
37 | CC1(S(=O)(=O)NC(=O)[C@@]23C[C@H]2/C=C\CCCCC[C@H](Nc2cccc(C#N)c2)C(=O)N2C[C@H](OC(=O)N4Cc5cccc(F)c5C4)C[C@H]2C(=O)N3)CC1 [Compound 1113] |  |  | 10 to 100 nM | < 10 nM
38 | Cc1ccccc1N[C@H]1CCCCC/C=C\[C@@H]2C[C@@]2(C(=O)NS(=O)(=O)C2(C)CC2)NC(=O)[C@@H]2C[C@@H](OC(=O)N3Cc4cccc(F)c4C3)CN2C1=O [Compound 1114] |  |  | 10 to 100 nM | < 10 nM
39 | CC1(S(=O)(=O)NC(=O)[C@@]23C[C@H]2/C=C\CCCCC[C@H](Nc2cccc(OC(F)(F)F)c2)C(=O)N2C[C@H](OC(=O)N4Cc5cccc(F)c5C4)C[C@H]2C(=O)N3)CC1 [Compound 1115] |  |  | < 10 nM | < 10 nM
